What was measured:
PRX3 = PRX3 crosslinking by reducing SDS-PAGE and western blot; assay type: cell-based, human
Description: PRX3 is the primary mitochondrial peroxidase required for H2O2 clearance from the mitochondria induced by metabolic, tumorigenic, and drug treatment inputs. During the metabolism of H2O2, PRX3 forms an intramolecular disulfide bond that orients the second active site for TS-dependent covalent crosslinking, inactivating the protein leading to increased oxidative stress and tumor cell death.
(§1) Erastin potentiates PRX3 crosslinking and ROS generation by TS. FIG. 10A show Western blot from HM cells treated with TS (1 μM), erastin (ER, 2.5 μM) or TS+ER for 24 hours. Samples were run under reducing conditions by SDS-PAGE. FIG. 10B show quantification of PRX3 dimer (TS-crosslink) to PRX3 monomer (unmodified PRX3) from protein western blots as in A (n=2 biological replicates). FIG. 10C show ROS levels in cells treated with TS, ER, or TS+ER for 24 hours (n=2 biological replicates, 3 technical replicates). FIG. 10D show protein western blot of cells cultured in media+/−cystine and treated with TS or ER. PRX3 crosslinking by TS is increased in cells cultured in cystine free (−) media.

HM-TSR cells = test: Cell viability assay of TS-resistant HM-TSR cells; assay type: cell-based, human; conditions: TS+ER 48 hours
Method: TS-resistant cells over-express SLC7A11 and are re-sensitized to TS by Erastin (ER). HM cells were dosed with TS by repetitive drug treatment with a short 24-48 hr recovery period. […] Development of a drug-tolerant cell line with tolerance at […] after 8 months. […] The shift in sensitivity of the HM-TSR-TS line to the HM-TSR-TS/ER line.

HM cells [1] = test: ROS levels in treated cells; assay type: cell-based, human; conditions: ER or TS+ER, 24 hours
Method: as §1

HM cells [2] = test: Cell viability assay of HM cells; assay type: cell-based, human
Method: (§2) FIG. 8A show BAP1 protein expression in immortalized mesothelial (LP9), pleural Meso (HM, MI), and peritoneal Meso (Pet-Gar) cell lines. […] FIG. 8B show EC50 values for TS in normal and MM cell lines (*p<0.05, **p<0.01, ***p<0.001, ****p <0.0001, n=4 biological replicates) FIG. 8C show protein western blots of BAP1 and GAPDH in HM scramble control (SCR) and BAP1 siRNA expressing (siBAP1) cells. FIG. 8D show cell viability curves of cells treated with TS 48 hours (n=3).
ZSS>10 indicates synergy between the two compounds.
TS synergy with ER is independent of ferrostatin sensitive MOA.
Knockdown of SLC7A11 potentiates TS activity. […] PRX3 crosslinking is increased in the SLC7A11 KD samples.

[3] = system: patient derived explants (PDEs); test: Gene set enrichment analysis of patient derived explants treated with TS; assay type: cell-based, human; conditions: PDEs treated with 10 μM of TS vs untreated
Description: Mesothelioma, a lethal cancer associated with asbestos exposure, lacks effective drug therapy particularly in the relapsed treatment setting. Epithelial-to-mesenchymal transition (EMT) confers an aggressive sarcomatoid phenotype capable of invasion, metastasis, and drug resistance. Pharmacological targeting of EMT could favorably alter the progression and treatment of mesothelioma. Mesothelioma cells rely on buffering of mitochondrial oxidative stress through the expression and activity of mitochondrial peroxiredoxin 3 (PRX3), which is covalently inactivated by the inhibitor RSO-021 (Thiostrepton, TS). To better understand the pharmacodynamics of TS, transcriptomic profiles of drug sensitive and resistant biphasic mesothelioma cell lines were generated. […] Lastly, downregulation of EMT by TS was determined in a cohort of TS treated mesothelioma surgical explants. In summary, PRX3 is a clinically actionable drug target, inhibition of which correlates with EMT modulation.

BAP1 = BAP1 protein expression by western blot; assay type: cell-based, human; conditions: TS 4 μM; LP9, HM, MI, Pet-Gar cell lines
Method: as §2

mitochondrial PRX3 = test: Preclinical PRX3 inhibition in transformed cells; assay type: cell-based
Description: (§3) RSO-021 is a PRX3 inhibitor that inactivates PRX3 through direct covalent adduction of active site cysteine residues, in turn, inducing oxidative stress to levels incompatible with tumor cell survival.

[4] = system: cytokine levels in pleural effusion; test: Phase 1/2 clinical trial: cytokine levels in pleural effusion by ELISA; assay type: in vivo, human; conditions: pleural effusion pre- and post-treatment, weekly intrapleural administration
Description: FIGS. 7A-7B show administration of RSO-021 and effect on cytokine levels. […] Prior to each dose patients will have pleural effusion drained to dryness per standard of care. After each administration, the IPC is secured until next RSO-021 dosing time point. […] Absolute values as determined following ELISA are shown from 7 patients enrolled on the trial.
RSO-021 is a PRX3 inhibitor that was investigated in a first-in-human phase ½ clinical trial, recruiting patients with malignant pleural effusion (MPE) arising from mesothelioma or other solid tumors. Mesothelioma cells rely on buffering of mitochondrial oxidative stress through the expression and activity of mitochondrial PRX3, which is covalently inactivated by RSO-021. Inactivation of PRX3 by RSO-021 leads to increased oxidative stress and tumor cell death. RSO-021 may be administered weekly via an intrapleural catheter. Cytokine levels in pleural effusion drainages were measured by ELISA assays. Tumor explants were grown following surgical resection of mesothelioma tumors. RNA sequencing of MM cell lines was conducted. […] RNA sequencing of cells derived from pre-and post-treated MPE aims to identify RSO-021 induced transcriptional changes and their association with clinical activity. […]

[5] = Preclinical animal studies, tolerability; assay type: in vivo
Description: as §3

[6] = system: human biphasic mesothelioma cell lines; test: RNA-Seq / RT-qPCR gene expression in mesothelioma cells treated with TS; assay type: cell-based
Method: Described herein are methods to evaluate changes in gene expression in malignant mesothelioma cells (H-meso cell line) treated with thiostrepton (HM-TS) for 16 hrs and compare to HM-TSR (TS_tolerant cells) grown in the presence of […] TS for several weeks. Biological triplicates were generated, RNA extracted, and RNA integrity evaluated. Cell lysates and cDNA were evaluated for known gene changes by RT-qPCR prior to library builds. Libraries were generated using the SMARTer® Stranded RNA-Seq Kit HT from Takara, pooled and analyzed on the Illumina HiSeq 1500 using a rapid run dual lane SE sequencing flow cell. Each library yielded an average of […] mapped reads.
Spatial multiregional sampling of adjacent, intra-tumour E (7) vs S (12) regions from 7 patients with bi-phasic mesothelioma was followed by whole exome, transcriptome and 100-plex immunofluorescence analysis (employing cytokeratin-based cell segmentation). Machine learning (random forests) was employed to infer E to S evolutionary trajectories at the genomic, transcriptomic and protein levels. Biphasic human mesothelioma cells were treated with the PRX3 inhibitor RSO-021 (thiostrepton) and gene-expression changes were evaluated by RT-qPCR.
E and S transition requires Mitochondrial peroxiredoxin 3 (PRX3). […] EMT, hypoxia and glycolysis associated transcription were reduced in RSO-021 treated cells (FIG. 4B). […] Further, MAPK13 (p38) expression is increased in TS treated cells (FIG. 4F). p38 negatively regulates TEAD signaling while TEAD promotes EMT and tumorigenesis. […] TGFb is a master regulator of EMT. VGLL4 inhibits TEAD transcription (FIG. 4H). […] Mesothelin (MSLN) is exclusively expressed in epithelioid MM (FIG. 5A). TS resistant cells increase MSLN expression, indicating a switch to an epithelioid phenotype. EMT is a primary driver in the Epithelioid to sarcomatoid transition (FIG. 5B).

SMILES: CCOc1ccccc1-n1c(C(C)N2CCN(C(=O)COc3ccc(Cl)cc3)CC2)nc2ccccc2c1=O (stereo not shown) [Erastin, erastin]
- effect on PRX3 crosslinking by TS (PRX3; HM cells, TS 1 μM, erastin 2.5 μM, 24 hours): potentiates
- sensitivity of TS-resistant cells to TS (HM-TSR cells): re-sensitized
- effect on ROS generation by TS (HM cells [1]): potentiates

SMILES: CCOC(=O)c1ccc(NC2CCCCC2)c(N)c1 [Fer-1, Ferrostatin]
- effect on TS/ER cytotoxic synergy (HM cells [2]; 48 hours): does not block
- effect on ER cytotoxicity (HM cells [2]; 48 hours, FIG. 11A): blocks
- effect on PRX3 crosslinking by TS or TS+ER (PRX3; cells treated +/- Fer-1, FIG. 11C): does not alter

SMILES: C=C(NC(=O)C(=C)NC(=O)c1csc(C2=N[C@@H]3c4csc(n4)[C@H]4NC(=O)c5csc(n5)[C@H]([C@](C)(O)[C@@H](C)O)NC(=O)[C@H]5CSC(=N5)/C(=C/C)NC(=O)[C@H]([C@@H](C)O)NC(=O)c5csc(n5)[C@]3(CC2)NC(=O)[C@H](C)NC(=O)C(=C)NC(=O)[C@H](C)NC(=O)[C@H]([C@@H](C)CC)N[C@@H]2C=Cc3c([C@H](C)O)cc(nc3[C@H]2O)C(=O)O[C@@H]4C)n1)C(N)=O [TS, Thiostrepton]
- epithelial mesenchymal transition genes [3]: downregulated
- TS activity in relation to BAP1 expression (HM cells [2]; BAP1 siRNA vs scramble, TS 48 hours): independent of BAP1 expression
- TS activity on knockdown of SLC7A11 (HM cells [2]; HM cells, SLC7A11 siRNA): potentiates
- BAP1 protein expression (BAP1): does not alter
- selectivity of mitochondrial PRX3 inhibition (mitochondrial PRX3): selectively inhibits
- cytokine levels including Resistin, IL-8 and IL-6 [4]: significant changes
- PRX3 crosslinking (PRX3; SLC7A11 KD samples, FIG. 12C): increased
- PRX3 crosslinking by TS (PRX3; cells cultured in cystine free (−) media): increased
- modified PRX3 (PRX3-TS) (PRX3; reducing SDS-PAGE and western blotting): dose-dependent irreversible increase
- tolerability [5]: well-tolerated
- EMT, hypoxia and glycolysis associated transcription ([6]; GSEA, treated vs control cells, FIG. 4B): reduced
- VISTA expression ([6]; RSO-021 treated cells, FIG. 4D): upregulated
- MAPK13 (p38) expression ([6]; TS treated cells, FIG. 4F): increased
- TGFb1 and TGFb2 expression ([6]; TS treated cells, FIG. 4G): downregulated
- Additional TEAD targets EGFR, DKK1, WNT5B, SLC7A5, and WNT5A ([6]; TS treatment, FIG. 4I): downregulated
- TEAD target genes, TGF-β and EMT associated genes including CDH2 ([6]; biphasic mesothelioma cells, FIG. 4A): downregulated
- mesothelin (MSLN) expression ([6]; biphasic mesothelioma cells, FIG. 4A/4D): upregulated
- ROS response and apoptosis signaling ([6]; differential transcriptomic analysis): upregulation
- expression of mesothelioma specific EMT genes Col5A, mesothelin, and VISTA ([6]; transcriptomic profiles): altered expression

From patent US20260284138A1, “METHODS OF MODULATING THE EPITHELIAL-MESENCHYMAL TRANSITION” (RS Oncology, LLC, priority 2023, published 2026)
